# Laboratory results: patent publication US7138361B2, “Herbicidal heterocycles” (E. I. du Pont de Nemours and Company, priority 2000, dated 2006)
# Legend:
# Type in all cases: in vivo
# [1] = test system: lambsquarters (Chenopodium album); test: Test B postemergence; conditions: 13 to 15 days
# How it was run: (§1)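 Post-treatment, species sat 13–15 days under greenhouse conditions before visual scoring against controls, 0 (no effect) through 100 (complete control). Application preemergence to sown seeds or postemergence at 1- to 4-leaf stage, using a non-phytotoxic solvent/surfactant formulation.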
# [2] = test system: crabgrass (Digitaria sanguinalis); test: Test B postemergence; conditions: 13 to 15 days
# How it was run: as §1
# [3] = test system: cocklebur (Xanthium strumarium); test: Test B postemergence; conditions: 13 to 15 days
# How it was run: as §1
# wild oat (Avena fatua) = test: Test B postemergence; conditions: 13 to 15 days
# How it was run: as §1
# Sunflower [4] = test: Test C preemergence; conditions: visual evaluation after 12 to 14 days
# Nightshade = test: Test C preemergence
# [5] = test system: woolly cupgrass (Eriochloa villosa); test: Test C preemergence; conditions: for Plant response rating (0 to 100), Cupgrass, Woolly: visual evaluation after 12 to 14 days
# How it was run: (§2)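 Visual injury scores of 0–100, with 100 meaning complete control, were given relative to controls after 12–14 days in the greenhouse. Treatments used a surfactant-containing non-phytotoxic solvent formulation, sprayed on seeded pots preemergence or on 1–4-leaf plants of 2–18 cm postemergence.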
# [6] = test system: lambsquarters (Chenopodium album); test: Test C preemergence; conditions: for Plant response rating (0 to 100), Lambsquarters: visual evaluation after 12 to 14 days
# How it was run: as §2
# [7] = test system: common ragweed (Ambrosia elatior); test: Test C preemergence; conditions: for Plant response rating (0 to 100), Ragweed, Common: visual evaluation after 12 to 14 days
# How it was run: as §2
# [8] = test system: pigweed (Amaranthus retroflexus); test: Test C preemergence; conditions: for Plant response rating (0 to 100), Pigweed: visual evaluation after 12 to 14 days
# How it was run: as §2
# [9] = test system: cocklebur (Xanthium strumarium); test: Test C preemergence; conditions: for Plant response rating (0 to 100), Cocklebur: visual evaluation after 12 to 14 days
# How it was run: as §2
# [10] = test system: Surinam grass (Brachiaria decumbens); test: Test C preemergence; conditions: for Plant response rating (0 to 100), Surinam grass: visual evaluation after 12 to 14 days
# How it was run: as §2
# corn (Zea mays) = test: Test C preemergence; conditions: for Plant response rating (0 to 100), Corn: visual evaluation after 12 to 14 days
# How it was run: as §2
# kochia (Kochia scoparia) = test: Test C preemergence; conditions: for Plant response rating (0 to 100), Kochia: visual evaluation after 12 to 14 days
# How it was run: as §2
# [11] = test system: bermudagrass (Cynodon dactylon); test: Test C preemergence; conditions: for Plant response rating (0 to 100 where 0 is no effect and 100 is complete control), Bermudagrass: visual evaluation after 12 to 14 days
# How it was run: as §2
# Sunflower [12] = test: Test C preemergence
# [13] = test system: johnsongrass (Sorghum halepense); test: Test C preemergence; conditions: for Plant response rating (0 to 100), Johnsongrass: visual evaluation after 12 to 14 days
# How it was run: as §2
# [14] = test system: giant foxtail (Setaria faberii); test: Test C preemergence; conditions: for Plant response rating (0 to 100), Foxtail, Giant: visual evaluation after 12 to 14 days
# How it was run: as §2
# [15] = test system: velvetleaf (Abutilon theophrasti); test: Test C preemergence; conditions: for Plant response rating (0 to 100), Velvetleaf: visual evaluation after 12 to 14 days
# How it was run: as §2
# soybean (Glycine max) = test: Test C preemergence; conditions: for Plant response rating (0 to 100), Soybean: visual evaluation after 12 to 14 days
# How it was run: as §2
# [16] = Rate 125 g/ha, scale 0 (no effect) to 100 (complete control)
# [17] = Rate 500 g/ha, scale 0 to 100, 0 is no effect, 100 is complete control
# [18] = Rate 62 g/ha, scale 0 to 100, 0 no effect, 100 complete control
# [19] = Preemergence, Rate 500 g/ha, scale 0 to 100
# [20] = preemergence, Rate 125 g/ha, scale 0 to 100, 0 no effect, 100 complete control
# [21] = Rate 125 g/ha, scale 0 to 100, 0 no effect, 100 complete control
# [22] = preemergence, Rate 62 g/ha, scale 0 to 100
# [23] = preemergence, Rate 250 g/ha, scale 0 to 100, 0 no effect, 100 complete control
compound,measurement,setting,value
CC(C)(C)c1ccn(C2CCN(c3cccc(Br)c3)C2=O)n1 (centres unmarked) [Compound 33],"Plant response rating, Lambsquarters",[1]; [16],70
same,"Plant response rating, Lambsquarters",[1]; [17],80
same,"Plant response rating, Crabgrass",[2]; [16],0
same,"Plant response rating, Crabgrass",[2]; [17],0
same,"Plant response rating, Cocklebur",[3]; [16],0
same,"Plant response rating, Cocklebur",[3]; [17],10
same,"Plant response rating, Wild Oat",wild oat (Avena fatua); [16],0
same,"Plant response rating, Wild Oat",wild oat (Avena fatua); [17],0
same,"Plant response rating (0 to 100), Sunflower",Sunflower [4]; Rate 250 g/ha,30
same,"Plant response rating, Nightshade",Nightshade; [18],0
same,"Plant response rating, Nightshade","Nightshade; Rate 500 g/ha, scale 0 to 100",100
same,"Plant response rating, Cupgrass, Woolly",[5]; [19],100
same,"Plant response rating, Cupgrass, Woolly",[5]; [18],20
same,"Plant response rating (0 to 100), Cupgrass, Woolly","[5]; preemergence, Rate 250 g/ha",100
same,"Plant response rating, Cupgrass, Woolly",[5]; [20],90
same,"Plant response rating, Lambsquarters",[6]; [19],100
same,"Plant response rating, Lambsquarters",[6]; [18],100
same,"Plant response rating (0 to 100), Lambsquarters","[6]; preemergence, Rate 250 g/ha",100
same,"Plant response rating, Lambsquarters",[6]; [20],100
same,"Plant response rating, Ragweed, Common",[7]; [19],30
same,"Plant response rating, Ragweed, Common",[7]; [18],0
same,"Plant response rating (0 to 100), Ragweed, Common","[7]; preemergence, Rate 250 g/ha",0
same,"Plant response rating, Ragweed, Common",[7]; [20],0
same,"Plant response rating, Pigweed",[8]; [19],100
same,"Plant response rating, Pigweed",[8]; [18],0
same,"Plant response rating (0 to 100), Pigweed","[8]; preemergence, Rate 250 g/ha",60
same,"Plant response rating, Pigweed",[8]; [20],0
same,"Plant response rating, Cocklebur",[9]; [19],0
same,"Plant response rating, Cocklebur",[9]; [18],0
same,"Plant response rating (0 to 100), Cocklebur","[9]; preemergence, Rate 250 g/ha",0
same,"Plant response rating, Cocklebur",[9]; [20],0
same,"Plant response rating, Surinam grass",[10]; [19],100
same,"Plant response rating, Surinam grass",[10]; [18],0
same,"Plant response rating (0 to 100), Surinam grass","[10]; preemergence, Rate 250 g/ha",90
same,"Plant response rating, Surinam grass",[10]; [20],0
same,"Plant response rating, Corn",corn (Zea mays); [19],40
same,"Plant response rating, Corn",corn (Zea mays); [18],0
same,"Plant response rating (0 to 100), Corn","corn (Zea mays); preemergence, Rate 250 g/ha",0
same,"Plant response rating, Corn",corn (Zea mays); [20],0
same,"Plant response rating, Kochia",kochia (Kochia scoparia); [19],100
same,"Plant response rating, Kochia",kochia (Kochia scoparia); [18],100
same,"Plant response rating (0 to 100), Kochia","kochia (Kochia scoparia); preemergence, Rate 250 g/ha",100
same,"Plant response rating, Kochia",kochia (Kochia scoparia); [20],100
same,"Plant response rating, Bermudagrass",[11]; [19],100
same,"Plant response rating, Bermudagrass",[11]; [18],90
same,"Plant response rating (0 to 100 where 0 is no effect and 100 is complete control), Bermudagrass","[11]; preemergence, Rate 250 g/ha",100
same,"Plant response rating, Bermudagrass",[11]; [20],100
same,"Plant response rating, Sunflower",Sunflower [12]; [18],0
same,"Plant response rating, Sunflower","Sunflower [12]; Rate 500 g/ha, scale 0 to 100",60
same,"Plant response rating, Johnsongrass",[13]; [19],100
same,"Plant response rating, Johnsongrass",[13]; [18],0
same,"Plant response rating (0 to 100), Johnsongrass","[13]; preemergence, Rate 250 g/ha",0
same,"Plant response rating, Johnsongrass",[13]; [20],0
same,"Plant response rating, Foxtail, Giant",[14]; [19],30
same,"Plant response rating, Foxtail, Giant",[14]; [18],50
same,"Plant response rating (0 to 100), Foxtail, Giant","[14]; preemergence, Rate 250 g/ha",0
same,"Plant response rating, Foxtail, Giant",[14]; [20],100
same,"Plant response rating, Velvetleaf",[15]; [19],0
same,"Plant response rating, Velvetleaf",[15]; [18],0
same,"Plant response rating (0 to 100), Velvetleaf","[15]; preemergence, Rate 250 g/ha",0
same,"Plant response rating, Velvetleaf",[15]; [20],0
same,"Plant response rating, Soybean",soybean (Glycine max); [19],0
same,"Plant response rating, Soybean",soybean (Glycine max); [18],0
same,"Plant response rating (0 to 100), Soybean","soybean (Glycine max); preemergence, Rate 250 g/ha",0
same,"Plant response rating, Soybean",soybean (Glycine max); [20],0
CCCC(C)c1ccn(C2OCN(c3cccc(C(F)(F)F)c3)C2=O)n1 (centres unmarked) [Compound 89],"Plant response rating, Lambsquarters",[1]; [17],100
same,"Plant response rating, Crabgrass",[2]; [16],0
same,"Plant response rating, Crabgrass",[2]; [17],60
same,"Plant response rating, Cocklebur",[3]; [16],0
same,"Plant response rating, Cocklebur",[3]; [17],30
same,"Plant response rating, Wild Oat",wild oat (Avena fatua); [17],0
same,"Plant response rating (0 to 100), Sunflower",Sunflower [4]; Rate 500 g/ha,60
same,"Plant response rating, Nightshade","Nightshade; Rate 62 g/ha, scale 0 to 100",0
same,"Plant response rating, Nightshade",Nightshade; [21],0
same,"Plant response rating, Nightshade","Nightshade; Rate 250 g/ha, scale 0 to 100, 0 no effect, 100 complete control",0
same,"Plant response rating, Cupgrass, Woolly",[5]; [21],0
same,"Plant response rating, Cupgrass, Woolly",[5]; [22],0
same,"Plant response rating (0 to 100), Cupgrass, Woolly","[5]; preemergence, Rate 500 g/ha",70
same,"Plant response rating, Cupgrass, Woolly",[5]; [23],40
same,"Plant response rating, Lambsquarters",[6]; [21],100
same,"Plant response rating, Lambsquarters",[6]; [22],80
same,"Plant response rating (0 to 100), Lambsquarters","[6]; preemergence, Rate 500 g/ha",100
same,"Plant response rating, Lambsquarters",[6]; [23],100
same,"Plant response rating, Ragweed, Common",[7]; [21],0
same,"Plant response rating, Ragweed, Common",[7]; [22],0
same,"Plant response rating (0 to 100), Ragweed, Common","[7]; preemergence, Rate 500 g/ha",0
same,"Plant response rating, Ragweed, Common",[7]; [23],0
same,"Plant response rating, Pigweed",[8]; [21],0
same,"Plant response rating, Pigweed",[8]; [22],0
same,"Plant response rating (0 to 100), Pigweed","[8]; preemergence, Rate 500 g/ha",100
same,"Plant response rating, Pigweed",[8]; [23],50
same,"Plant response rating, Cocklebur",[9]; [21],0
same,"Plant response rating, Cocklebur",[9]; [22],0
same,"Plant response rating (0 to 100), Cocklebur","[9]; preemergence, Rate 500 g/ha",10
same,"Plant response rating, Cocklebur",[9]; [23],10
same,"Plant response rating, Surinam grass",[10]; [21],10
same,"Plant response rating, Surinam grass",[10]; [22],0
same,"Plant response rating (0 to 100), Surinam grass","[10]; preemergence, Rate 500 g/ha",65
same,"Plant response rating, Surinam grass",[10]; [23],30
same,"Plant response rating, Corn",corn (Zea mays); [21],25
same,"Plant response rating, Corn",corn (Zea mays); [22],10
same,"Plant response rating (0 to 100), Corn","corn (Zea mays); preemergence, Rate 500 g/ha",30
same,"Plant response rating, Corn",corn (Zea mays); [23],30
same,"Plant response rating, Kochia",kochia (Kochia scoparia); [21],70
same,"Plant response rating, Kochia",kochia (Kochia scoparia); [22],20
same,"Plant response rating (0 to 100), Kochia","kochia (Kochia scoparia); preemergence, Rate 500 g/ha",100
same,"Plant response rating, Kochia",kochia (Kochia scoparia); [23],90
same,"Plant response rating, Bermudagrass",[11]; [21],90
same,"Plant response rating, Bermudagrass",[11]; [22],10
same,"Plant response rating (0 to 100 where 0 is no effect and 100 is complete control), Bermudagrass","[11]; preemergence, Rate 500 g/ha",100
same,"Plant response rating, Bermudagrass",[11]; [23],90
same,"Plant response rating, Sunflower",Sunflower [12]; [21],0
same,"Plant response rating, Johnsongrass",[13]; [21],70
same,"Plant response rating, Johnsongrass",[13]; [22],50
same,"Plant response rating (0 to 100), Johnsongrass","[13]; preemergence, Rate 500 g/ha",100
same,"Plant response rating, Johnsongrass",[13]; [23],70
same,"Plant response rating, Foxtail, Giant",[14]; [21],0
same,"Plant response rating, Foxtail, Giant",[14]; [22],0
same,"Plant response rating (0 to 100), Foxtail, Giant","[14]; preemergence, Rate 500 g/ha",100
same,"Plant response rating, Foxtail, Giant",[14]; [23],0
same,"Plant response rating, Velvetleaf",[15]; [21],0
same,"Plant response rating, Velvetleaf",[15]; [22],0
same,"Plant response rating (0 to 100), Velvetleaf","[15]; preemergence, Rate 500 g/ha",10
same,"Plant response rating, Velvetleaf",[15]; [23],0
same,"Plant response rating, Soybean",soybean (Glycine max); [21],0
same,"Plant response rating, Soybean",soybean (Glycine max); [22],0
same,"Plant response rating (0 to 100), Soybean","soybean (Glycine max); preemergence, Rate 500 g/ha",30
same,"Plant response rating, Soybean",soybean (Glycine max); [23],0
